According to patent publication US20220104493A1, “HERBICIDAL COMPOUNDS” (SYNGENTA CROP PROTECTION AG, priority 2019, published 2022):

Key:
Assay type in all cases: in vivo
[1] = tested on: Ipomoea hederacea (IPOHE); test: Post-emergence efficacy, Method A; conditions: 500 g/Ha, 100=total damage to plant, 0=no damage, evaluated after 7 and 14 days, read-out: Control of weed species after post-emergence application, IPOHE
[2] = tested on: Euphorbia heterophylla (EPHHL); test: Post-emergence efficacy, Method A; conditions: 500 g/Ha, 100=total damage to plant, 0=no damage, evaluated after 7 and 14 days, read-out: Control of weed species after post-emergence application, EPHHL
[3] = tested on: Chenopodium album (CHEAL); test: Post-emergence efficacy, Method A; conditions: 500 g/Ha, 100=total damage to plant, 0=no damage, evaluated after 7 and 14 days, read-out: Control of weed species after post-emergence application, CHEAL
[4] = tested on: Amaranthus palmeri (AMAPA); test: Post-emergence efficacy, Method A; conditions: 500 g/Ha, 100=total damage to plant, 0=no damage, evaluated after 7 and 14 days, read-out: Control of weed species after post-emergence application, AMAPA
Lolium perenne (LOLPE) = test: Post-emergence efficacy, Method A; conditions: 500 g/Ha, 100=total damage to plant, 0=no damage, evaluated after 7 and 14 days, read-out: Control of weed species after post-emergence application, LOLPE
[5] = tested on: Digitaria sanguinalis (DIGSA); test: Post-emergence efficacy, Method A; conditions: 500 g/Ha, 100=total damage to plant, 0=no damage, evaluated after 7 and 14 days, read-out: Control of weed species after post-emergence application, DIGSA
Eleusine indica (ELEIN) = test: Post-emergence efficacy, Method A; conditions: 500 g/Ha, 100=total damage to plant, 0=no damage, evaluated after 7 and 14 days, read-out: Control of weed species after post-emergence application, ELEIN
[6] = tested on: Echinochloa crus-galli (ECHCG); test: Post-emergence efficacy, Method A; conditions: 500 g/Ha, 100=total damage to plant, 0=no damage, evaluated after 7 and 14 days, read-out: Control of weed species after post-emergence application, ECHCG
Setaria faberi (SETFA) = test: Post-emergence efficacy, Method A; conditions: 500 g/Ha, 100=total damage to plant, 0=no damage, evaluated after 7 and 14 days, read-out: Control of weed species after post-emergence application, SETFA
Brassica napus (BRSNN) = test: Post-emergence efficacy, Method B
Protocol: (§1) Seeds of a variety of test species were sown in standard loam based soil in pots. Plants were cultivated from between 21 and 28 days (post-emergence) under controlled conditions in a glasshouse (at 24/16° C., day/night; 14 hours light; 65% humidity) for warm climate species and (at 20/16° C. day/night; 15 hours light; 65% humidity) for cool climate species.
(§2) The plants were sprayed with an aqueous spray solution derived from dissolving the technical active ingredient formula in a small amount of acetone and a special solvent and emulsifier mixture referred to as IF50 (11.12% Emulsogen EL360 TM+44.44% N-methylpyrrolidone+44.44% Dowanol DPM glycol ether), to create a 50 g/l solution which was then diluted to required concentration using 0.5% or 1% Empicol ESC70 (Sodium lauryl ether sulphate)+1% ammonium sulphate as diluent.
(§3) The delivery of the aqueous spray solution was via a laboratory track sprayer which delivered the aqueous spray composition at a rate of 200 litres per hectare, using a flat fan nozzle (Teejet 11002VS) and an application volume of 200 litre/ha (at 2 bar).
(§4) The test plants were then grown in a glasshouse under controlled conditions (at 24/16° C., day/night; 14 hours light; 65% humidity) for warm climate species and (at 20/16° C. day/night; 15 hours light; 65% humidity) for cool climate species and watered twice daily. After 7 and 14 days the test was evaluated (100=total damage to plant; 0=no damage to plant).
(§5) Brassica napus (BRSNN), Solanum turberosum (SOLTU), Glycine Max (GLXMA), and Helianthus annus (HELAN)

Glycine Max (GLXMA) = test: Post-emergence efficacy, Method B
Protocol: as §1, §2, §3, §4, §5

Helianthus annus (HELAN) = test: Post-emergence efficacy, Method B; conditions: second set of rows of Table C (evaluated after 7 and 14 days, day not printed)
Protocol: as §1, §2, §3, §4, §5

[7] = tested on: Solanum turberosum (SOLTU); test: Post-emergence efficacy, Method B
Protocol: as §1, §2, §3, §4, §5

[8] = 50 g/Ha, first set of rows of Table C (evaluated after 7 and 14 days, day not printed)
[9] = 50 g/Ha, second set of rows of Table C (evaluated after 7 and 14 days, day not printed)
[10] = 150 g/Ha, first set of rows of Table C (evaluated after 7 and 14 days, day not printed)
[11] = 150 g/Ha, second set of rows of Table C (evaluated after 7 and 14 days, day not printed)
[12] = 600 g/Ha, first set of rows of Table C (evaluated after 7 and 14 days, day not printed)
[13] = 600 g/Ha, second set of rows of Table C (evaluated after 7 and 14 days, day not printed)

O=S(=O)([O-])C[n+]1ccc(-c2ncns2)cc1 [Compound A4, [4-(1,2,4-thiadiazol-5-yl)pyridin-1-ium-1-yl]methanesulfonate]
pest or weed control at 500 g/ha [1]: 100%
pest or weed control at 500 g/ha [2]: 100%
pest or weed control at 500 g/ha [3]: 100%
pest or weed control at 500 g/ha [4]: 100%
pest or weed control at 500 g/ha (Lolium perenne (LOLPE)): 80%
pest or weed control at 500 g/ha [5]: 70%
pest or weed control at 500 g/ha (Eleusine indica (ELEIN)): 80%
pest or weed control at 500 g/ha [6]: 70%
pest or weed control at 500 g/ha (Setaria faberi (SETFA)): 80%
Control after post-emergence application, BRSNN (100=total damage to plant; 0=no damage to plant) (Brassica napus (BRSNN); [8]): 23
Control after post-emergence application, BRSNN (100=total damage to plant; 0=no damage to plant) (Brassica napus (BRSNN); [9]): 43
Control after post-emergence application, BRSNN (100=total damage to plant; 0=no damage to plant) (Brassica napus (BRSNN); [10]): 32
Control after post-emergence application, BRSNN (100=total damage to plant; 0=no damage to plant) (Brassica napus (BRSNN); [11]): 57
Control after post-emergence application, BRSNN (100=total damage to plant; 0=no damage to plant) (Brassica napus (BRSNN); [12]): 43
Control after post-emergence application, BRSNN (100=total damage to plant; 0=no damage to plant) (Brassica napus (BRSNN); [13]): 80
Control after post-emergence application, GLXMA (100=total damage to plant; 0=no damage to plant) (Glycine Max (GLXMA); [8]): 45
Control after post-emergence application, GLXMA (100=total damage to plant; 0=no damage to plant) (Glycine Max (GLXMA); [9]): 52
Control after post-emergence application, GLXMA (100=total damage to plant; 0=no damage to plant) (Glycine Max (GLXMA); [10]): 83
Control after post-emergence application, GLXMA (100=total damage to plant; 0=no damage to plant) (Glycine Max (GLXMA); [11]): 62
Control after post-emergence application, GLXMA (100=total damage to plant; 0=no damage to plant) (Glycine Max (GLXMA); [12]): 93
Control after post-emergence application, GLXMA (100=total damage to plant; 0=no damage to plant) (Glycine Max (GLXMA); [13]): 85
Control after post-emergence application, HELAN (100=total damage to plant; 0=no damage to plant) (Helianthus annus (HELAN); 50 g/Ha): 97
Control after post-emergence application, HELAN (100=total damage to plant; 0=no damage to plant) (Helianthus annus (HELAN); 150 g/Ha): 100
Control after post-emergence application, HELAN (100=total damage to plant; 0=no damage to plant) (Helianthus annus (HELAN); 600 g/Ha): 100
Control after post-emergence application, SOLTU (100=total damage to plant; 0=no damage to plant) [7, 8]: 15
Control after post-emergence application, SOLTU (100=total damage to plant; 0=no damage to plant) [7, 9]: 50
Control after post-emergence application, SOLTU (100=total damage to plant; 0=no damage to plant) [7, 10]: 30
Control after post-emergence application, SOLTU (100=total damage to plant; 0=no damage to plant) [7, 11]: 60
Control after post-emergence application, SOLTU (100=total damage to plant; 0=no damage to plant) [7, 12]: 82
Control after post-emergence application, SOLTU (100=total damage to plant; 0=no damage to plant) [7, 13]: 67

O=C(O)C[n+]1ccc(-c2csnn2)cc1 [Compound A53]
pest or weed control at 500 g/ha [1]: 20%
pest or weed control at 500 g/ha [2]: 20%
pest or weed control at 500 g/ha [3]: 10%
pest or weed control at 500 g/ha [4]: 10%
pest or weed control at 500 g/ha (Lolium perenne (LOLPE)): 0%
pest or weed control at 500 g/ha [5]: 0%
pest or weed control at 500 g/ha (Eleusine indica (ELEIN)): 0%
pest or weed control at 500 g/ha [6]: 10%
pest or weed control at 500 g/ha (Setaria faberi (SETFA)): 10%
